The conditions of series [1]: in vivo.
Text: In Example 1, the brain tissues of infants were sampled to measure the concentration of total alpha-tocopherol and RRR-alpha-tocopherol.
Subjects were infants (n=25) who died during the first year of life from either SIDS or other conditions. Brain tissues (occipital cortex, OC {n=17}; frontal cortex, FC {n−17}; and hippocampus, HPC {n=19}) from the NICHD Brain and Tissue Bank were processed using standard lipid extraction procedures and analyzed using chiral reverse phase HPLC. Data are presented as concentrations (μg/g tissue) of total alpha-tocopherol or RRR-alpha-tocopherol in the brain tissue.
The mean concentration in each region is denoted by a horizontal bar. […] In addition, total alpha-tocopherol was analyzed by age (in days) in the frontal cortex (graph B), hippocampus (graph C), and occipital cortex (graph D). […] RRR-alpha-tocopherol concentrations were also measured in the frontal cortex (graph E), hippocampus (graph F), and occipital cortex (graph G) of human infant brain tissues and reported as a function of age.
For series [2] the following is noted: cited from earlier work.

Molecules are shown by their SMILES. Where two headings read alike, the source gives them in different places.

In the case of `Cc1c(C)c2c(c(C)c1O)CC[C@@](C)(CCC[C@H](C)CCC[C@H](C)CCCC(C)C)O2` [RRR-alpha-tocopherol], in series [1], the “correlation between age and mean concentration” value is “strong correlation”; the “stereoisomer predominance compared to all non-RRR-alpha-tocopherol stereoisomers” value was “predominant stereoisomer”. Besides, in series [2] (accepted nutritional guidelines), the “biological activity relative to all-rac-alpha-tocopherol” value is 1.36 times. The “biological activity relative to all-rac-alpha-tocopherol” value in series [2] (recent studies) is listed as “about 2 times”.

As to `Cc1c(C)c2c(c(C)c1O)CC[C@@](C)(CCC[C@H](C)CCC[C@H](C)CCCC(C)C)O2` [alpha-tocopherol], the “change of total alpha-tocopherol concentration with age” value in series [1] is on record as “increased with age”.

(Values after patent US9993457B2, “Method of improving visual processing, visual acuity, or both by administering compositions comprising RRR-alpha-tocopherol and carotenoid to infants” (ABBOTT LABORATORIES, priority 2014, dated 2018).)
